Measured values: patent EP0236948A2, “Novel compounds WK-142 and process for preparing the same” (KITASATO KENKYUSHO, priority 1986, dated 1987)
Non-standard residues stand in square brackets, D forms with d. Residues, ends and D or L forms follow the SMILES beside them. *: point of attachment. Sta = CC(C)C[C@H](N)[C@@H](O)CC(=O)O; Isovaleryl = CC(C)CC(=O)*

Assays:
[1] = target: T1, pepsin from coats of pig's stomach (Sus scrofa, UniProt P00791); assay: Pepsin-inhibiting activity (method of Anson et al); assay type: biochemical; settings: pepsin from coats of pig's stomach (P7012, Sigma)
T1 construct: using pepsin from coats of pig's stomach (P7012 manufactured by Sigma Chemical Inc.); purchased Sigma Chemical Inc. P7012; host or cells: pig stomach mucosa
Experimental: • (1) Pepsin-Inhibiting Activity: The pepsin-inhibiting activity was measured in terms of IC50 value according to the method of Anson et al [Journal of General Physiology 22, 79 (1938)] using pepsin from coats of pig's stomach (P7012 manufactured by Sigma Chemical Inc.).

[2] = test system: renin obtained from pig's kidney; assay: Renin-inhibiting activity (method of Ikeda et al); assay type: biochemical

T1 sequence (P00791 60-385): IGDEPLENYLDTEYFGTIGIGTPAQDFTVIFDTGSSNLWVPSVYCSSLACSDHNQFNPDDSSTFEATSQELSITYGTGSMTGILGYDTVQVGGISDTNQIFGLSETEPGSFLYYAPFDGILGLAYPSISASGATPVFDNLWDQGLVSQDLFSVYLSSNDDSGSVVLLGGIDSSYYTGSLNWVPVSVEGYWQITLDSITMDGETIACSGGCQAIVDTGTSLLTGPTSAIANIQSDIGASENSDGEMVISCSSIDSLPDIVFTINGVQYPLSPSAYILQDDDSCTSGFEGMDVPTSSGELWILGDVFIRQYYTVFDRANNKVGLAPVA

| SMILES | IC50 [1] [nM] | IC50 [2] [nM] |
| --- | --- | --- |
| CC(C)CC(=O)NC(C(=O)NC(C(=O)NC(CC(C)C)C(O)CC(=O)NC(C)C(=O)NC(Cc1ccccc1)C(O)CC(=O)O)C(C)C)C(C)C (stereo not drawn) [compound A] | 10 |  |
| CC(C)CC(=O)N[C@H](C(=O)N[C@H](C(=O)N[C@@H](CC(C)C)[C@@H](O)CC(=O)N[C@@H](C)C(=O)N[C@@H](CC(C)C)[C@@H](O)CC(=O)O)C(C)C)C(C)C [pepstatin A] (Isovaleryl-VV[Sta]A[Sta]-OH) | 3 | 470 |
